In this experiment the target is T1, full-length human PKCι (Homo sapiens, UniProt P41743).
T1 construct: Recombinant, full-length human PKCι expressed in Sf21 insect cells is also commercially available; purchased; host or cells: Sf21 insect cells
T1 sequence (P41743 1-596): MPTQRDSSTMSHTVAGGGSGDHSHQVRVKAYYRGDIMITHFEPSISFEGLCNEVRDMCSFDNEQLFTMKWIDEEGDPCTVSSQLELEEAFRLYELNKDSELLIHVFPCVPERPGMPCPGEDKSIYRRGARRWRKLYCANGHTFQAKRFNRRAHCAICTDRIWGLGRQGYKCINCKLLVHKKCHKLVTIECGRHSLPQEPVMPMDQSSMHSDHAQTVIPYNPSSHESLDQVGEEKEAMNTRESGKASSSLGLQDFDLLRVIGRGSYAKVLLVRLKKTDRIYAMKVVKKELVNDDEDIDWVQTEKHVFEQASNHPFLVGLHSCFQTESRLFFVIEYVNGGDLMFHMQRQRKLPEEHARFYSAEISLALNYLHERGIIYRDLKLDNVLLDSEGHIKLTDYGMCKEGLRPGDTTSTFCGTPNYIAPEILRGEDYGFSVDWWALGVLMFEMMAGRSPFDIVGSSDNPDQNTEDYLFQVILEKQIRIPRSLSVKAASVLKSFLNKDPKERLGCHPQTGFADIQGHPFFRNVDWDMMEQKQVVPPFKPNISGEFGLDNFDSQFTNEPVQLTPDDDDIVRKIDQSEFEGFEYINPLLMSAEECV
Put plainly: PKCι IC50 IMAP assay, full-length PKCι at 150 μM ATP. To be noted: read-out: IC50 in IMAP assay against full length PKCi at 150 μM ATP. It counts as biochemical. The source says:
Assays are based on the ability of PKCι to phosphorylate a commercially available peptide substrate in vitro. The peptide substrate is FAM-PKCε pseudopeptide derived peptide, and comprises the amino acid sequence 5FAM-[…]-NH2. Recombinant, full-length human PKCι expressed in Sf21 insect cells is also commercially available. Recombinant, kinase-domain human PKCι is expressed and purified in-house.
The procedure below explains how dose response curves for inhibitors of PKCι are obtained. The screen described is for a 384 well format but the assay can be adapted to 1536 or other formats as required.
Compounds to be tested are dissolved in 100% DMSO. Compounds are diluted as required to give a final concentration of 4% DMSO (v/v) in the assay. 1 μl is plated into 384 well black low-binding flat bottomed assay plates which are used immediately. Dilutions and additions of compound to assay plates are carried out using Matrix WellMate® and Matrix PlateMate® Plus liquid handling systems.
On the day of the screen PKCι/substrate working solution, and ATP working solution, are prepared in buffer containing 20 mM tris-HCl pH7.5, 10 mM MgCl2, 0.01% Triton X100, 250 μM EGTA and 1 mM DTT. The final concentration of PKCι used varies depending on the batch of protein but is typically 15 pM. The final concentration of peptide substrate in the assay is 100 nM. ATP is used at a final concentration of 150 μM or 25 μM in the assays containing full-length or kinase-domain PKCι respectively, which corresponds to five times or equal to the KM^APP for ATP for each enzyme, respectively. The final buffer concentration in the assay is 18 mM tris-HCl pH7.5, 9 mM MgCl2, 0.009% Triton X100, 225 μM EGTA and 0.9 mM DTT. Relevant controls are included, namely no compound and no enzyme. 5 μl PKCι/substrate working solution at 30 pM and 200 nM, respectively, is added to the wells, followed by 4 μl ATP working solution at 375 μM or 62.5 μM for full-length or kinase-domain PKCι respectively, using a 16 channel Matrix pipette. The reaction is allowed to incubate for 60 minutes at room temperature, before the reaction is stopped and developed by the addition of 20 μl IMAP™ development reagent (Molecular Devices). IMAP development reagent consists of 0.25% (v/v) IMAP progressive binding reagent, 17% (v/v) IMAP progressive binding buffer A and 3% (v/v) IMAP progressive binding buffer B. The plates are then incubated for 2 hours at room temperature before being read using an appropriate plate reader, for example a Molecular Devices HT Analyst or a BMG Pherastar. Plates are read using a fluorescence polarisation protocol with excitation at 485 nm and emission at 530 nm, and dichroic mirror at 505 nm.
Percentage inhibition values are calculated from fluorescence polarisation values, using the no compound and no enzyme control values as 0% and 100% inhibition, respectively. IC50 determination is performed with ExcelFit software (IDBS) using curve fit 205. Z′ factors are determined for each plate tested and are all above 0.5.

Take `Cc1ccc(Nc2cc(-c3nc(N[C@@H]4CCNC4)c4ccncc4n3)ccn2)nc1` [Example 345, {2-[2-(5-Methyl-pyridin-2-ylamino)-pyridin-4-yl]-pyrido[3,4-d]pyrimidin-4-yl}-(R)-pyrrolidin-3-yl-amine]: the IC50 was less than 100 nM.
The value for `NC[C@H](Cc1ccccc1)Nc1nc(-c2ccncc2)nc2cnccc12` [Example 28, N-[(2S)-1-amino-3-phenylpropan-2-yl]-2-(pyridin-4-yl)-pyrido[3,4-d]-pyrimidin-4-amine] was 100 to 1000 nM; that for `Cc1cccc(C)c1Nc1cc(-c2nc(N3CCNCC3)c3c(C4CC4)cncc3n2)ccn1` [Example 541, [4-(5-Cyclopropyl-4-piperazin-1-yl-pyrido[3,4-d]pyrimidin-2-yl)-pyridin-2-yl]-(2,6-dimethyl-phenyl)-amine] was less than 100 nM; that for `COc1cncc2nc(-c3ccnc(Nc4cccc(C(F)(F)F)c4F)c3)nc(N3CCNCC3)c12` [Example 452, (2-Fluoro-3-trifluoromethyl-phenyl)-[4-(5-methoxy-4-piperazin-1-yl-pyrido[3,4-d]pyrimidin-2-yl)-pyridin-2-yl]-amine] was 100 to 1000 nM.
The value for `c1cc(C2CC2)n2nc(Nc3cc(-c4nc(N5CCNCC5)c5c(C6CC6)cncc5n4)ccn3)nc2c1` [Example 825, [4-(5-Cyclopropyl-4-piperazin-1-yl-pyrido[3,4-d]pyrimidin-2-yl)-pyridin-2-yl]-(5-cyclopropyl-[1,2,4]triazolo[1,5-a]pyridin-2-yl)-amine] was less than 100 nM; that for `c1cc(-c2nc(N3CCNCC3)c3c(C4CCC4)cncc3n2)c2cc([C@@H]3C[C@H]4CC[C@@H]3O4)[nH]c2n1` (racemic) [Example 2122, (±)-exo-5-Cyclobutyl-2-[2-(7-oxa-bicyclo[2.2.1]hept-2-yl)-1H-pyrrolo[2,3-b]pyridin-4-yl]-4-piperazin-1-yl-pyrido[3,4-d]pyrimidine] was less than 100 nM.
The figure for `Fc1cnc2[nH]c(C(F)(F)F)cc2c1-c1nc(N2CCNCC2)c2c(C3CC3)cncc2n1` [Example 1232, 5-Cyclopropyl-2-(5-fluoro-2-trifluoromethyl-1H-pyrrolo[2,3-b]pyridin-4-yl)-4-piperazin-1-yl-pyrido[3,4-d]pyrimidine] is less than 100 nM; for `CCCc1ccc(F)c(Nc2cc(-c3nc(N4CCNCC4)c4c(C5CC5)cncc4n3)ccn2)c1` [Example 640, [4-(5-Cyclopropyl-4-piperazin-1-yl-pyrido[3,4-d]pyrimidin-2-yl)-pyridin-2-yl]-(2-fluoro-5-propyl-phenyl)-amine] it is less than 100 nM.
In the case of `N[C@H](CNc1nc(-c2ccncc2)nc2c(-c3cccc(-c4ccn[nH]4)c3)nccc12)Cc1ccccc1` [Example 120, N-[(2S)-2-amino-3-phenylpropyl]-8-[3-(1H-pyrazol-5-yl)phenyl]-2-(pyridin-4-yl)pyrido[3,4-d]pyrimidin-4-amine], the IC50 lay within 1000 to 10000 nM.
The figure for `c1cc(-c2nc(N3CCNCC3)c3c(C4CC4)cncc3n2)cc(NC23CC(C2)C3)n1` [Example 700, Bicyclo[1.1.1]pent-1-yl-[4-(5-cyclopropyl-4-piperazin-1-yl-pyrido[3,4-d]pyrimidin-2-yl)-pyridin-2-yl]-amine] is less than 100 nM; for `Fc1cccc(F)c1Nc1cc(-c2nc(N3CCNCC3)c3c(C4CCC4)cncc3n2)ccn1` [Example 620, [4-(5-Cyclobutyl-4-piperazin-1-yl-pyrido[3,4-d]pyrimidin-2-yl)-pyridin-2-yl]-(2,6-difluoro-phenyl)-amine] it is less than 100 nM.
The value for `CCn1nc(Nc2cc(-c3nc(N4CCNCC4)c4c(C5CC5)cncc4n3)ccn2)cc1C` [Example 780, [4-(5-Cyclopropyl-4-piperazin-1-yl-pyrido[3,4-d]pyrimidin-2-yl)-pyridin-2-yl]-(1-ethyl-5-methyl-1H-pyrazol-3-yl)-amine] was less than 100 nM; that for `c1ccn2nc(Nc3cc(-c4nc(N5CCNCC5)c5c(C6CC6)cncc5n4)ccn3)cc2c1` [Example 2072, [4-(5-Cyclopropyl-4-piperazin-1-yl-pyrido[3,4-d]pyrimidin-2-yl)-pyridin-2-yl]-pyrazolo[1,5-a]pyridin-2-yl-amine] was less than 100 nM.
The figure for `OC1CCN(c2nc(-c3ccncc3)nc3c(Cl)nccc23)CC1` [Example 75, 1-[8-chloro-2-(pyridin-4-yl)-pyrido[3,4-d]-pyrimidin-4-yl]-piperidin-4-ol] is 1000 to 10000 nM.
On to `CC(C)(C)c1ccc(Nc2cc(-c3nc(N4CCNCC4)c4c(C5CC5)cncc4n3)ccn2)c(Cl)c1` [Example 529, (4-tert-Butyl-2-chloro-phenyl)-[4-(5-cyclopropyl-4-piperazin-1-yl-pyrido[3,4-d]pyrimidin-2-yl)-pyridin-2-yl]-amine], for which the IC50 was less than 100 nM.
The value for `NC(=O)Cc1cccc(Nc2cc(-c3nc(N[C@@H]4CCNC4)c4ccncc4n3)ccn2)c1` [Example 316, 2-(3-{4-[4-((R)-Pyrrolidin-3-ylamino)-pyrido[3,4-d]pyrimidin-2-yl]-pyridin-2-ylamino}-phenyl)-acetamide] was 100 to 1000 nM.
On to `N[C@H](CNc1nc(-c2ccncc2)nc2c(-c3ccc4occc4c3)nccc12)Cc1ccccc1` [Example 97, N-[(2S)-2-amino-3-phenylpropyl]-8-(1-benzofuran-5-yl)-2-(pyridin-4-yl)-pyrido[3,4-d]-pyrimidin-4-amine], for which the IC50 fell in the range of 100 to 1000 nM.
The value for `COc1cncc2nc(-c3ccnc4[nH]c(C)cc34)nc(N3CCNCC3)c12` [Example 1201, 5-Methoxy-2-(2-methyl-1H-pyrrolo[2,3-b]pyridin-4-yl)-4-piperazin-1-yl-pyrido[3,4-d]pyrimidine] was less than 100 nM; that for `Cn1cc(CNc2cc(-c3nc(N4CCNCC4)c4c(C5CC5)cncc4n3)ccn2)cn1` [Example 758, [4-(5-Cyclopropyl-4-piperazin-1-yl-pyrido[3,4-d]pyrimidin-2-yl)-pyridin-2-yl]-(1-methyl-1H-pyrazol-4-ylmethyl)-amine] was less than 100 nM.
The figure for `N[C@H](CNc1nc(-c2ccncc2)nc2c(-c3ccsc3)nccc12)Cc1ccccc1` [Example 114, N-[(2S)-2-amino-3-phenylpropyl]-2-(pyridin-4-yl)-8-(thiophen-3-yl)pyrido[3,4-d]pyrimidin-4-amine] is 100 to 1000 nM; for `Cc1ccc(Nc2cc(-c3nc(N4CCNCC4)c4c(C5CC5)cncc4n3)ccn2)c(F)c1` [Example 575, [4-(5-Cyclopropyl-4-piperazin-1-yl-pyrido[3,4-d]pyrimidin-2-yl)-pyridin-2-yl]-(2-fluoro-4-methyl-phenyl)-amine] it is less than 100 nM; for `COc1cncc2nc(-c3ccnc(NC(C)=O)c3)nc(N3CCNCC3)c12` [Example 214, N-[4-(5-Methoxy-4-piperazin-1-yl-pyrido[3,4-d]pyrimidin-2-yl)-pyridin-2-yl]-acetamide] it is less than 100 nM.
The value for `Fc1cccc(F)c1Nc1cc(-c2nc(SC3CCNCC3)c3c(C4CC4)cncc3n2)ccn1` [Example 791, {4-[5-Cyclopropyl-4-(piperidin-4-ylsulfanyl)-pyrido[3,4-d]pyrimidin-2-yl]-pyridin-2-yl}-(2,6-difluoro-phenyl)-amine] was less than 100 nM.

By IC50 is commonly meant the concentration at which inhibition is half-maximal.

(Values after patent US9914730B2, “Azaquinazoline inhibitors of Atypical protein Kinase C” (Ignyta, Inc., priority 2012, dated 2018).)
